1 molecule from ChEMBL document CHEMBL4613211, “Aurone: A biologically attractive scaffold as anticancer agent” (Eur J Med Chem, 2019) can be followed below.

The structures appear in SMILES notation.

One experiment relates to ACHN. Description: Growth inhibition of human ACHN cells at 10 uM after 48 hrs by sulforhodamine B assay relative to control. The class given is functional. Particulars: read-out: GI. On the technique in general: In SRB staining, fixed cells bind dye roughly in proportion to their protein.
`COc1ccc(/C=C2\Oc3c(c(OC)c4ccoc4c3CN3CCOCC3)C2=O)cc1`: the inhibition of growth at 10 µM lay in the range of 56.4 to 65.2%.

In the next experiment the test system is SF-295. Description: Growth inhibition of human SF295 cells at 10 uM after 48 hrs by sulforhodamine B assay relative to control. In kind it is functional. Particulars: SF-295, 48 h, read-out: GI.
Turning to `COc1ccc(/C=C2\Oc3c(c(OC)c4ccoc4c3CN3CCOCC3)C2=O)cc1`, the inhibition of growth at 10 µM was 56.4 to 65.2%.

For a further experiment, the system named is HL-60(TB). Kind of experiment: Growth inhibition of human HL-60(TB) cells at 10 uM after 48 hrs by sulforhodamine B assay relative to control. The class given is functional. Particulars: HL-60, 48 h, read-out: GI.
With `COc1ccc(/C=C2\Oc3c(c(OC)c4ccoc4c3CN3CCOCC3)C2=O)cc1`, the inhibition of growth at 10 µM lay within 56.4 to 65.2%.

In the next experiment the test system is IGROV-1. Description: Growth inhibition of human IGROV1 cells at 10 uM after 48 hrs by sulforhodamine B assay relative to control. In kind it is functional. Particulars: IGROV-1, 48 h, read-out: GI.
In the case of `COc1ccc(/C=C2\Oc3c(c(OC)c4ccoc4c3CN3CCOCC3)C2=O)cc1`, the inhibition of growth at 10 µM fell in the range of 56.4 to 65.2%.

Another experiment relates to HOP-92. Description: Growth inhibition of human HOP92 cells at 10 uM after 48 hrs by sulforhodamine B assay relative to control. Particulars: HOP-92, 48 h, read-out: GI. In kind it is functional.
For `COc1ccc(/C=C2\Oc3c(c(OC)c4ccoc4c3CN3CCOCC3)C2=O)cc1`, the inhibition of growth at 10 µM lay within 56.4 to 65.2%.

In a further experiment the test system is SK-OV-3. Kind of experiment: Growth inhibition of human SKOV3 cells at 10 uM after 48 hrs by sulforhodamine B assay relative to control. The class given is functional. Particulars: SK-OV-3, 48 h, read-out: GI.
As to `COc1ccc(/C=C2\Oc3c(c(OC)c4ccoc4c3CN3CCOCC3)C2=O)cc1`, the inhibition of growth at 10 µM lay in the range of 56.4 to 65.2%.

The test system of another experiment is M14. Description: Growth inhibition of human M14 cells at 10 uM after 48 hrs by sulforhodamine B assay relative to control. Particulars: M14, 48 h, read-out: GI. The class given is functional.
`COc1ccc(/C=C2\Oc3c(c(OC)c4ccoc4c3CN3CCOCC3)C2=O)cc1`: the inhibition of growth at 10 µM was in the range of 56.4 to 65.2%.

For the next experiment, the system named is CCRF-CEM. Kind of experiment: Growth inhibition of human CCRF-CEM cells at 10 uM after 48 hrs by sulforhodamine B assay relative to control. The class given is functional. Particulars: read-out: GI.
Consider `COc1ccc(/C=C2\Oc3c(c(OC)c4ccoc4c3CN3CCOCC3)C2=O)cc1`, for which the inhibition of growth at 10 µM lay in the range of 56.4 to 65.2%.

The subject of a further experiment is MDA-MB-231. Kind of experiment: Growth inhibition of human MDA-MB-231 cells at 10 uM after 48 hrs by sulforhodamine B assay relative to control. In kind it is functional. Particulars: MDA-MB-231, 48 h, read-out: GI.
Turning to `COc1ccc(/C=C2\Oc3c(c(OC)c4ccoc4c3CN3CCOCC3)C2=O)cc1`, the inhibition of growth at 10 µM was 56.4 to 65.2%.

A further experiment concerns OVCAR-3. Description: Growth inhibition of human OVCAR3 cells at 10 uM after 48 hrs by sulforhodamine B assay relative to control. The class given is functional. Particulars: OVCAR-3, 48 h, read-out: GI.
On to `COc1ccc(/C=C2\Oc3c(c(OC)c4ccoc4c3CN3CCOCC3)C2=O)cc1`, for which the inhibition of growth at 10 µM lay in the range of 56.4 to 65.2%.

Another experiment has as its system 786-0. Description: Growth inhibition of human 786-0 cells at 10 uM after 48 hrs by sulforhodamine B assay relative to control. In kind it is functional. Particulars: 786-0, 48 h, read-out: GI.
Regarding `COc1ccc(/C=C2\Oc3c(c(OC)c4ccoc4c3CN3CCOCC3)C2=O)cc1`, the inhibition of growth at 10 µM is 56.4 to 65.2%.

The subject of a further experiment is SF-268. Description: Growth inhibition of human SF268 cells at 10 uM after 48 hrs by sulforhodamine B assay relative to control. In kind it is functional. Particulars: SF-268, 48 h, read-out: GI.
`COc1ccc(/C=C2\Oc3c(c(OC)c4ccoc4c3CN3CCOCC3)C2=O)cc1`: the inhibition of growth at 10 µM was 56.4 to 65.2%.

Another experiment deals with TK-10. Description: Growth inhibition of human TK10 cells at 10 uM after 48 hrs by sulforhodamine B assay relative to control. The class given is functional. Particulars: TK-10, 48 h, read-out: GI.
For the molecule `COc1ccc(/C=C2\Oc3c(c(OC)c4ccoc4c3CN3CCOCC3)C2=O)cc1`, the inhibition of growth at 10 µM lay in the range of 56.4 to 65.2%.

In another experiment the test system is Hs-578T. Kind of experiment: Growth inhibition of human Hs 578T cells at 10 uM after 48 hrs by sulforhodamine B assay relative to control. The class given is functional. Particulars: read-out: GI.
With `COc1ccc(/C=C2\Oc3c(c(OC)c4ccoc4c3CN3CCOCC3)C2=O)cc1`, the inhibition of growth at 10 µM is 56.4 to 65.2%.

In another experiment the test system is MDA-MB-468. Kind of experiment: Growth inhibition of human MDA-MB-468 cells at 10 uM after 48 hrs by sulforhodamine B assay relative to control. In kind it is functional. Particulars: MDA-MB-468, 48 h, read-out: GI.
Consider `COc1ccc(/C=C2\Oc3c(c(OC)c4ccoc4c3CN3CCOCC3)C2=O)cc1`, for which the inhibition of growth at 10 µM was in the range of 56.4 to 65.2%.

Another experiment has as its system Malme-3M. Kind of experiment: Growth inhibition of human MALME-3M cells at 10 uM after 48 hrs by sulforhodamine B assay relative to control. The class given is functional. Particulars: read-out: GI.
Regarding `COc1ccc(/C=C2\Oc3c(c(OC)c4ccoc4c3CN3CCOCC3)C2=O)cc1`, the inhibition of growth at 10 µM was 56.4 to 65.2%.

The test system of the next experiment is OVCAR-8. Description: Growth inhibition of human OVCAR8 cells at 10 uM after 48 hrs by sulforhodamine B assay relative to control. In kind it is functional. Particulars: OVCAR-8, 48 h, read-out: GI.
`COc1ccc(/C=C2\Oc3c(c(OC)c4ccoc4c3CN3CCOCC3)C2=O)cc1`: the inhibition of growth at 10 µM was in the range of 56.4 to 65.2%.

Another experiment deals with A498. Description: Growth inhibition of human A498 cells at 10 uM after 48 hrs by sulforhodamine B assay relative to control. The class given is functional. Particulars: A498, 48 h, read-out: GI.
On to `COc1ccc(/C=C2\Oc3c(c(OC)c4ccoc4c3CN3CCOCC3)C2=O)cc1`, for which the inhibition of growth at 10 µM is 56.4 to 65.2%.
